Structures can show the parent of a compound that is named as a salt.
These molecules were tested against T1, human recombinant ENPP1 (Homo sapiens, UniProt P22413) (assay: ENPP1 enzyme assay with cGAMP substrate (AMP-Glo)). Conditions: human recombinant ENPP1 3 ng per reaction, cGAMP 5 μM, 37° C., 90 minutes, AMP-Glo luminescence.
T1 construct: purchased R&D Systems
T1 sequence (P22413 1-925): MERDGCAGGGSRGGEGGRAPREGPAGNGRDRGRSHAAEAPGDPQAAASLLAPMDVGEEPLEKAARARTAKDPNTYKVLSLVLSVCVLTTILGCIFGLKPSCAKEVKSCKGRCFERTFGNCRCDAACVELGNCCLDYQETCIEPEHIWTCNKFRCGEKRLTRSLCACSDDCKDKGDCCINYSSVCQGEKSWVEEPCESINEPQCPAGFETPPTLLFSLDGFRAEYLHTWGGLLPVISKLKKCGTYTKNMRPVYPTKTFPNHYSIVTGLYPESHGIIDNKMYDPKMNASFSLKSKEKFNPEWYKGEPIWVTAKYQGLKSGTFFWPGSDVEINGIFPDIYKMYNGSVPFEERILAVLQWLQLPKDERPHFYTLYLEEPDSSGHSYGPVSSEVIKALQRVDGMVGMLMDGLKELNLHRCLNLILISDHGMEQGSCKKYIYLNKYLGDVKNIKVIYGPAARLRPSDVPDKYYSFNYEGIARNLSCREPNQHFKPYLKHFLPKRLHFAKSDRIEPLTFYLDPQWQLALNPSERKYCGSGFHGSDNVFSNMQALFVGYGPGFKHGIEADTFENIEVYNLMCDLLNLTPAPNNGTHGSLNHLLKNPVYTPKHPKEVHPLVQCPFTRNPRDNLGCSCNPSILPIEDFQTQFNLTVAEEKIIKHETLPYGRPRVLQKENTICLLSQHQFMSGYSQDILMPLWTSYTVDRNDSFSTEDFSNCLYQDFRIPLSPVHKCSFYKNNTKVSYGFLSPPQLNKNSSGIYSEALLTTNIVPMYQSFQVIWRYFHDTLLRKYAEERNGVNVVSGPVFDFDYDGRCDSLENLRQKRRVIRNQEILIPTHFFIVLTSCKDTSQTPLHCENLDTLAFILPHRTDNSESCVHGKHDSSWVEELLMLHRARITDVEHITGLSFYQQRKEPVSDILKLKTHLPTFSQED
Assay type: biochemical
Description: ENPP1 hydrolyzes nucleotides or nucleotide derivatives to yield nucleoside-5′-monophosphate and pyrophosphate. In addition, ENPP1 hydrolyzes 2′,3′-cGAMP to yield 5′-adenosine monophosphate (AMP) and 5′-guanosine monophosphate (GMP). AMP obtained through the above reaction was measured using an AMP-Glo® kit (Promega). The AMP-Glo® kit includes two reagents. The first reagent terminates the AMP-producing enzyme reaction, removes ATP, and converts the produced AMP into ADP. The second reagent converts ADP into ATP, the ATP being used to generate luminescence in the luciferase reaction. The amount of luminescence measured as described above is proportional to the amount of AMP produced by ENPP1.
The final reaction mixture for an assay system contains 50 mM Tris (pH 8.5) buffer, 250 mM NaCl, 0.5 mM CaCl2, 1 μM ZnCl2, 5% glycerol, and 1% DMSO. […] The reaction was initiated by addition of cGAMP (at a final concentration of 5 μM) and carried out at 37° C. for 90 minutes. At the end of the reaction, 10 μl of AMP-Glo first reagent was added to stop the reaction, and then the reaction mixture was stored at room temperature for 1 hour. After storage, the mixture was added with 20 μl of an AMP detection solution (a mixture of AMP-Glo II reagent and Kinase-Glo at a ratio of 1:100) and stored at room temperature for 1 hour. Luminescence signals were measured using a Victor® plate reader (Perkin Elmer). The maximal activity control (containing an enzyme and a substrate in the presence of 1% DMSO; MAX) and the minimal activity control (containing a substrate and 1% DMSO; MIN) were evaluated simultaneously. In each experiment, serially diluted reference ENPP1 inhibitors were tested together. IC50 values for % residual activity versus compound concentration were determined by fitting inhibition curves using a 3-parameter variable slope in GraphPad Prism® software.
For `O=S(=O)(NCC1CCN(c2ncnc3[nH]ccc23)CC1)c1cccs1` [Example 88, N-((1-(7H-pyrrolo[2,3-d]pyrimidin-4-yl)piperidin-4-yl)methyl)thiophene-2-sulfonamide], the IC50 was 1 to 10 µM.
With `NCc1ccc(-c2ccnc3[nH]ccc23)cc1` [Example 10, (4-(1H-pyrrolo[2,3-b]pyridin-4-yl)phenyl)methenamine hydrochloride] the IC50 was > 10 µM.
With `NS(=O)(=O)NC1CCN(c2ncnc3[nH]ccc23)CC1` [Example 79, N-(1-(7H-pyrrolo[2,3-d]pyrimidin-4-yl)piperidin-4-yl)sulfamide hydrochloride] the IC50 was 1 to 10 µM.
For `NS(=O)(=O)NCCC1CCN(c2ncnc3[nH]ccc23)CC1` [Example 54, N-(2-(1-(7H-pyrrolo[2,3-d]pyrimidin-4-yl)piperidin-4-yl)ethyl)sulfamide], the IC50 was < 1 µM.
For `c1nc(N2CCC3(CCNC3)CC2)c2cc[nH]c2n1` [Example 66, 8-(7H-pyrrolo[2,3-d]pyrimidin-4-yl)-2,8-diazaspiro[4.5]decane hydrochloride], the IC50 was > 10 µM.
With `CC(C)(NS(N)(=O)=O)c1ccc(-c2ncnc3[nH]ccc23)cc1` [Example 26, N-(2-(4-(7H-pyrrolo[2,3-d]pyrimidin-4-yl)phenyl)propan-2-yl)sulfamide hydrochloride] the IC50 was < 1 µM.
For `NS(=O)(=O)NCc1cccc(-c2ncnc3[nH]ccc23)c1` [Example 34, N-(3-(7H-pyrrolo[2,3-d]pyrimidin-4-yl)benzyl)sulfamide hydrochloride], the IC50 was 1 to 10 µM.
`CSc1nc(N2CCC(CCNS(N)(=O)=O)CC2)c2cc[nH]c2n1` [Example 53, N-(2-(1-(2-(methylthio)-7H-pyrrolo[2,3-d]pyrimidin-4-yl)piperidin-4-yl)ethyl)sulfamide] was tested, and the IC50 was > 10 µM.
With `Cc1c[nH]c2ncnc(N3CCC(CNS(N)(=O)=O)CC3)c12` [Example 78, N-((1-(5-methyl-7H-pyrrolo[2,3-d]pyrimidin-4-yl)piperidin-4-yl)methyl)sulfamide hydrochloride] the IC50 was < 1 µM.
With `NS(=O)(=O)NCc1ccc(-c2ncnc3[nH]ccc23)cc1F` [Example 30, N-(2-fluoro-4-(7H-pyrrolo[2,3-d]pyrimidin-4-yl)benzyl)sulfamide hydrochloride] the IC50 was 1 to 10 µM.
With `NS(=O)(=O)NCC1CCN(c2ncnc3c2ccn3-c2ccccc2)CC1` [Example 45, N-((1-(7-phenyl-7H-pyrrolo[2,3-d]pyrimidin-4-yl)piperidin-4-yl)methyl)sulfamide] the IC50 was < 1 µM.
`NCc1ccc(-c2ncnc3[nH]ccc23)cc1` [Example 11, (4-(7H-pyrrolo[2,3-d]pyrimidin-4-yl)phenyl)methenamine hydrochloride] showed an IC50 of 1 to 10 µM.
`CC(C)n1ccc2c(N3CCC(CNS(N)(=O)=O)CC3)ncnc21` [Example 47, N-((1-(7-isopropyl-7H-pyrrolo[2,3-d]pyrimidin-4-yl)piperidin-4-yl)methyl)sulfamide] was tested, and the IC50 was > 10 µM.
For `NS(=O)(=O)NCC1CCN(c2ncnc3c2ccn3-c2cccnc2)CC1` [Example 84, N-((1-(7-(pyridin-3-yl)-7H-pyrrolo[2,3-d]pyrimidin-4-yl)piperidin-4-yl)methyl)sulfamide hydrochloride], the IC50 was 1 to 10 µM.
Work on `NS(=O)(=O)N1CCc2cc(-c3ncnc4[nH]ccc34)ccc2C1` [Example 42, 6-(7H-pyrrolo[2,3-d]pyrimidin-4-yl)-3,4-dihydroisoquinoline-2(1H)-sulfonamide hydrochloride] yielded an IC50 of 1 to 10 µM.
`NS(=O)(=O)NCc1ccc(-c2ncnc3[nH]ccc23)cc1` [Example 25, N-(4-(7H-pyrrolo[2,3-d]pyrimidin-4-yl)benzyl)sulfamide hydrochloride] showed an IC50 of 1 to 10 µM.
With `NS(=O)(=O)N1CCC2(CCN(c3ncnc4[nH]ccc34)CC2)C1` [Example 80, 8-(7H-pyrrolo[2,3-d]pyrimidin-4-yl)-2,8-diazaspiro[4.5]decane-2-sulfamide hydrochloride] the IC50 was < 1 µM.
For `NCC1CCN(c2ncnc3[nH]ccc23)CC1` [Example 65, (1-(7H-pyrrolo[2,3-d]pyrimidin-4-yl)piperidin-4-yl)methenamine hydrochloride], the IC50 was 1 to 10 µM.
For `CC(C)(N)c1ccc(-c2ncnc3[nH]ccc23)cc1` [Example 12, 2-(4-(7H-pyrrolo[2,3-d]pyrimidin-4-yl)phenyl)propan-2-amine hydrochloride], the IC50 was > 10 µM.
`Cc1c[nH]c2ncnc(N3CCC(CN)CC3)c12` [Example 63, (1-(5-methyl-7H-pyrrolo[2,3-d]pyrimidin-4-yl)piperidin-4-yl)methenamine hydrochloride] was tested, and the IC50 was > 10 µM.
With `CC(NS(N)(=O)=O)C1CCN(c2ncnc3[nH]ccc23)CC1` (stereo not shown) [Example 82, N-(1-(1-(7H-pyrrolo[2,3-d]pyrimidin-4-yl)piperidin-4-yl)ethyl)sulfamide hydrochloride] the IC50 was < 1 µM.
In the case of `NS(=O)(=O)NCC1CCN(c2ncnc3c2ccn3C2CC2)CC1` [Example 46, N-((1-(7-cyclopropyl-7H-pyrrolo[2,3-d]pyrimidin-4-yl)piperidin-4-yl)methyl)sulfamide], the IC50 is reported as < 1 µM.
Work on `NCC1CCN(c2ncnc3c2ccn3-c2ccco2)CC1` [Example 69, (1-(7-(furan-2-yl)-7H-pyrrolo[2,3-d]pyrimidin-4-yl)piperidin-4-yl)methenamine hydrochloride] yielded an IC50 of 1 to 10 µM.
For `Cc1cc2c(N3CCC(CNS(N)(=O)=O)CC3)ncnc2[nH]1` [Example 51, N-((1-(6-methyl-7H-pyrrolo[2,3-d]pyrimidin-4-yl)piperidin-4-yl)methyl)sulfamide], the IC50 was < 1 µM.
`CC(C)(C)OC(=O)NS(=O)(=O)NCc1ccc(-c2ccnc3[nH]ccc23)cc1` [Example 17, tert-butyl (N-(4-(1H-pyrrolo[2,3-b]pyridin-4-yl)benzyl)sulfamoyl)carbamate] was tested, and the IC50 was > 10 µM.
With `NS(=O)(=O)NCC1CCN(c2ncnc3c2ccn3-c2ccco2)CC1` [Example 83, N-((1-7-(furan-2-yl)-7H-pyrrolo[2,3-d]pyrimidin-4-yl)piperidin-4-yl)methyl)sulfamide hydrochloride] the IC50 was < 1 µM.
With `NS(=O)(=O)NCc1ccc(-c2ccnc3[nH]ccc23)cc1` [Example 24, N-(4-(1H-pyrrolo[2,3-b]pyridin-4-yl)benzyl)sulfamide hydrochloride] the IC50 was 1 to 10 µM.
For `NS(=O)(=O)NCC1CCN(c2ncnc3[nH]ccc23)CC1` [Example 43, N-((1-(7H-pyrrolo[2,3-d]pyrimidin-4-yl)piperidin-4-yl)methyl)sulfamide], the IC50 was < 1 µM.
With `CC(NS(N)(=O)=O)c1ccc(-c2ncnc3[nH]ccc23)cc1` (stereo not shown) [Example 27, N-(1-(4-(7H-pyrrolo[2,3-d]pyrimidin-4-yl)phenyl)ethyl)sulfamide hydrochloride] the IC50 was < 1 µM.
In the case of `Cn1ccc2c(N3CCC(CNS(N)(=O)=O)CC3)ncnc21` [Example 44, N-((1 (7-methyl-7H-pyrrolo[2,3-d]pyrimidin-4-yl)piperidin-4-yl)methyl)sulfamide], the IC50 is reported as < 1 µM.
`CC(C)(N)c1ccc(-c2ncnc3c2ccn3-c2cccnc2)cc1` [Example 15, hydrochloride] was tested, and the IC50 was > 10 µM.

Source: US12060352B2, “Substituted pyrrolo[2,3-d]pyrimidines having ectonucleotide pyrophosphatase-phosphodiesterase inhibitory activity” (KOREA INSTITUTE OF SCIENCE AND TECHNOLOGY, priority 2021, dated 2024)
